The text below walks through data of patent publication US8173653B2, “Pyridiazinone derivatives for the treatment of tumours” (Merck Patent Gesellschaft MIT Beschraenkter Haftung, priority 2005, dated 2012).

pIC50: −log10 of the molar value.

Test [1] addresses T1, Met kinase (Homo sapiens, UniProt P08581).
T1 construct: 6His (N); purchased Upstate 14-526; host or cells: insect cells (Sf21; S. frugiperda), baculovirus
In words: Met kinase inhibition (enzyme assay), flashplate method. In kind it is biochemical. Here is the method:
Flashplate Method (Met Kinase)
The test plates used are 96-well Flashplate® microtitre plates from Perkin Elmer (Cat. No. SMP200). The components of the kinase reaction described below are pipetted into the assay plate. The Met kinase and the substrate poly Ala-Glu-Lys-Tyr, (PAGLT, 6:2:5:1), are incubated for 3 hrs at room temperature with radioactively labelled ^33P-ATP in the presence and absence of test substances in a total volume of 100 μl. The reaction is terminated using 150 μl of a 60 mM EDTA solution. After incubation for a further 30 min at room temperature, the supernatants are filtered off with suction, and the wells are washed three times with 200 μl of 0.9% NaCl solution each time. The measurement of the bound radioactivity is carried out by means of a scintillation measuring instrument (Topcount NXT, Perkin-Elmer).
The full value used is the inhibitor-free kinase reaction. This should be approximately in the range 6000-9000 cpm. The pharmacological zero value used is staurosporin in a final concentration of 0.1 mM. The inhibitory values (IC50) are determined using the RS1_MTS program.
Kinase reaction conditions per well: • 30 μl of assay buffer • 10 μl of substance to be tested in assay buffer with 10% of DMSO • 10 μl of ATP (final concentration 1 μM cold, 0.35 μCi of ^33P-ATP) • 50 μl of Met kinase/substrate mixture in assay buffer; (10 ng of enzyme/well, 50 ng of pAGLT/well)
Assay Buffer: • 50 mM HEPES • 3 mM magnesium chloride • 3 μM sodium orthovanadate • 3 mM manganese(II) chloride • 1 mM dithiothreitol (DTT) • pH=7.5 (to be set using sodium hydroxide)

Test [2] deals with TPR-Met/NIH3T3 cells. Nature of the test: In-vivo test: subcutaneous TPR-Met/NIH3T3 tumour in Balb/C mice, tumour volume. The settings on record: female Balb/C mice, 200 mg/kg daily by gastric tube, 9 days. Here is the method: Experimental procedure: Female Balb/C mice (breeder: Charles River Wiga) were 5 weeks old on arrival. They were acclimatised to our keeping conditions for 7 days. Each mouse was subsequently injected subcutaneously in the pelvic area with 4 million TPR-Met/NIH3T3 cells in 100 μl of PBS (without Ca++ and Mg++).
Measurement of the tumour volume: The length (L) and breadth (B) were measured using a Vernier calliper, and the tumour volume was calculated from the formula L×B×B/2.
Keeping conditions: 4 or 5 animals per cage, feeding with commercial mouse food (Sniff).

T1 sequence (P08581 974-1390 limits assumed): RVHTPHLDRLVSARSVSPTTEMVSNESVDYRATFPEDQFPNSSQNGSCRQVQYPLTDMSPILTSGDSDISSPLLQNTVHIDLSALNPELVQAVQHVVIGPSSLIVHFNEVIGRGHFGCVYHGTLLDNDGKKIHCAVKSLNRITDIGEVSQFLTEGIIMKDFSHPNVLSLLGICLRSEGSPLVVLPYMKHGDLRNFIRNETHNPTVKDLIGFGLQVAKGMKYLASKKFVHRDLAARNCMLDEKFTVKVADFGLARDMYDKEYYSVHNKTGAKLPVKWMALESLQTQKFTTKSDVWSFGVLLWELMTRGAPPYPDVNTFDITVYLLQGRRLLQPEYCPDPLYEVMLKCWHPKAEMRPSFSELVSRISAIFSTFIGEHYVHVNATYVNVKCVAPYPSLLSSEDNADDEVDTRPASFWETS

One may read the pIC50 as the negative decadic logarithm of the IC50, by convention in mol/L. For `CN1CCN(CCCOC(=O)Nc2cccc(Cn3nc(-c4cc(F)cc(F)c4)ccc3=O)c2)CC1` [A91, 3-(4-Methylpiperazin-1-yl)propyl {3-[3-(3,5-difluorophenyl)-6-oxo-6H-pyridazin-1-ylmethyl]phenyl}carbamate], the pIC50 in test [1] was 6.00 to 8.00. The “antitumoural action (tumour volume)” value in test [2] is “significant antitumoural action”.
